# Data as given in patent US8034954B2, “Calcium channel antagonists” (Icagen, Inc., priority 2005, dated 2011).
# Tested on: T-type calcium channels
# Assay: T-type calcium channel inhibitory activity (Fluo-4 FLIPR fluorescence and whole cell patch clamp)
# Format: cell-based, mammalian
# Conditions: cells natively expressing T-type channels or HEK-293 cells expressing recombinant T-type calcium channels; fluorometric and electrophysiological methods, not distinguished in the table; read-out: Activity (inhibition of T-type calcium channels, IC50)
# Method: T-type calcium channel inhibitory activity of some compounds of the invention was evaluated using both fluorometric as well as electrophysiological measurement methodologies, which are known to those skilled in the art. Fluorescence measurement of changes in intracellular calcium due to entry of calcium through T-type calcium channels was assessed using calcium sensitive fluorescent dyes Fluo-4 and Fluo-3. In brief, cells natively expressing T-type channels or HEK-293 cells transiently or stably expressing recombinant mammalian T-type calcium channels grown in 96-well tissue culture plates in DMEM/High glucose, Hyclone, Fetal Bovine Serum (10%), and 2 mM sodium pyruvate 2 mM (and for cells lines recombinantly expressing T-type calcium channels, G418@400 mg/liter) were loaded with 4 μM Fluo-4 made up in Earls Balanced Salt Solution (EBSS). After incubation for 30 minutes at room temperature, cells were washed with low calcium (0.5 mM) EBSS to remove extracellular Fluo-4. Baseline fluorescence was measured in a FLIPR (FLuorescence Image Plate Reader) (Molecular Devices Inc) after applying test compounds at desired concentration for 5-10 minutes. The effect of test compound on calcium entry was assessed by monitoring changes in Fluo-4 fluorescence following an elevation of extracellular calcium concentration from 0.5 mM to 5 mM. […] Native cells natively expressing T-type channels or HEK-293 cells transiently or stably expressing recombinant mammalian T-type calcium channels were grown in DMEM/High glucose, Hyclone, Fetal Bovine Serum (10%), 2 mM sodium pyruvate 2 mM (and for cells lines recombinantly expressing T-type calcium channels, G418@400 mg/liter) on glass coverslips in 35 mm tissue culture dishes. […] Electrical currents were measured using the whole cell configuration of the patch clamp technique (Axopatch 200B, Axon Instruments (Molecular Devices) (see Hamill et al (1981) PFugers Arch, 1981 391:85-100) using 2-2.5 MOhm resistance glass pipettes filled with 135 CsF, 5 CsCl, 5 NaCl, 5 EGTA, 10 HEPES, pH 7.3 with CsOH, Osmolarity ˜288 mOsm. Test compound effects were typically assessed under conditions in which approximately half of the available channels were inactivated either by an 8 second conditioning depolarization from a holding potential of −100 mV to a potential ranging from −70 mV to −60 mV or by continually holding the membrane potential at −70 mV. Test compounds were assessed for their ability to reduce the amplitude of the inward T-type calcium current elicited by a 100 ms step depolarization −20 or −30 mV.
row,Compound,IC50 [nM]
1,"CCOc1cccc(S(=O)(=O)c2cnc(Nc3cc(NCC[C@H]4CCNC4)nc(C)n3)s2)c1 [Example 10, N-[5-(3-ethoxy-benzenesulfonyl)-thiazol-2-yl]-2-methyl-N′-(R)-(pyrrolidin-3-yl-ethyl)-pyrimidine-4,6-diamine]",1 to 1000
2,"CCOc1cccc(S(=O)(=O)c2cnc(Nc3cc(OC[C@H]4CCCN4)nc(C)n3)s2)c1 [Example 21, N-[5-(3-ethoxy-benzenesulfonyl)-thiazol-2-yl]-[2-methyl-((6R)-1-pyrrolidin-2-yl-methoxy)pyrimidin-4-yl]-amine]",1 to 1000
3,"CCOc1cccc(S(=O)(=O)c2cnc(Nc3cc(OCCN(C)C)nc(C(F)(F)F)n3)s2)c1 [Example 28, [6-(2-Dimethylamino-ethoxy)-2-trifluormethyl-pyrimidin-4-yl]-[5-(3-Ethoxy-benzenesulfonyl)-thiazol-2-yl]-amine]",1 to 1000
4,[5-(3-Ethoxy-benzenesulfonyl)-thiazol-2-yl]-[6-(3-methylamino)propyl)-2-methyl-pyrimidin-4-yl]-amine [Example 35],1 to 1000
